According to patent US6274715A, “Tricyclic erythromycin derivatives” (priority 1997, dated 2001):
Converted amounts (≈) assume the structure as drawn.

Columns and labels:
Format in all cases: cell-based
ESCHERICHIA COLI KNK 437 = settings: E. coli KNK 437; BHI agar; unit assumed
[1] = test system: STREPTOCOCCUS PYOGENES EES61; assay: In vitro antibacterial activity, MIC, BHI agar dilution; settings: S. pyogenes EES61, unit assumed
[2] = test system: STAPHYLOCOCCUS AUREUS ATCC 6538P; assay: as above; settings: S. aureus ATCC 6538P, 35-37° C., 20 to 24 hours, unit assumed
[3] = test system: PSEUDOMONAS AERUGINOSA K799/61; assay: as above; settings: P. aeruginosa K799/61, unit assumed
[4] = test system: KLEBSIELLA PNEUMONIAE ATCC 8045; assay: as above; settings: K. pneumoniae ATCC 8045, unit assumed
[5] = test system: STAPHYLOCOCCUS AUREUS NCTC10649M; assay: as above; settings: S. aureus NCTC10649M, unit assumed
[6] = test system: STAPHYLOCOCCUS AUREUS 1775; assay: as above; settings: S. aureus 1775, unit assumed
[7] = test system: PSEUDOMONAS AERUGINOSA DPHD-2862; assay: as above; settings: P. aeruginosa DPHD-2862, unit assumed
[8] = test system: ENTEROBACTER AEROGENES ATCC 13048; assay: as above; settings: E. aerogenes ATCC 13048, unit assumed
[9] = test system: PSEUDOMONAS AERUGINOSA K799/WT; assay: as above; settings: P. aeruginosa K799/WT, unit assumed
[10] = test system: PSEUDOMONAS AERUGINOSA BMH10; assay: as above; settings: P. aeruginosa BMH10, unit assumed
[11] = test system: MYCOBACTERIUM SMEGMATIS ATCC 114; assay: as above; settings: M. smegmatis ATCC 114, unit assumed
ESCHERICHIA COLI SS = assay: as above; settings: E. coli SS, unit assumed
[12] = test system: STREPTOCOCCUS PYOGENES 930; assay: as above; settings: S. pyogenes 930, unit assumed
[13] = test system: STAPHYLOCOCCUS AUREUS A5177; assay: as above; settings: S. aureus A5177, unit assumed
[14] = test system: ACINETOBACTER CALCOACETICUS CMX 669; assay: as above; settings: A. calcoaceticus CMX 669, unit assumed
[15] = test system: PSEUDOMONAS AERUGINOSA DPHD-5263; assay: as above; settings: P. aeruginosa DPHD-5263, unit assumed
ESCHERICHIA COLI H560 = assay: as above; settings: E. coli H560, unit assumed
[16] = test system: STAPHYLOCOCCUS AUREUS A-5278; assay: as above; settings: S. aureus A-5278, unit assumed
EN[…] ATCC 8043 = assay: as above; settings: E. faecium ATCC 8043, unit assumed
Method in brief: (§1)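 Agar dilution in BHI: plates inoculated with 1:100 dilutions of organisms (1:10 for Micrococcus and Streptococcus), incubated 20-24 h at 35-37° C, then inspected for the lowest inhibitory concentration against a drug-free growth control.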

M[…] ATCC 9341 = assay: as above; settings: M. luteus ATCC 9341, unit assumed
Method in brief: as §1

M[…] ATCC 4698 = assay: as above; settings: M. luteus ATCC 4698, unit assumed
Method in brief: as §1

STR[…] 508 = assay: as above; settings: S. agalactiae CMX 508, unit assumed
Method in brief: as §1

[17] = test system: STREPTOCOCCUS PYOGENES PIU 2548; assay: as above; settings: S. pyogenes PIU 2548, unit assumed
ESCHERICHIA COLI DC-2 = assay: as above; settings: E. coli DC-2, unit assumed
CANDIDA ALBICANS CCH 442 = assay: as above; settings: C. albicans CCH 442, unit assumed
[18] = test system: PROVIDENCIA STUARTII CMX 640; settings: P. stuartii CMX 640; BHI agar; unit assumed
[19] = test system: STAPHYLOCOCCUS AUREUS CMX 642A; assay: In vitro antibacterial activity, MIC, BHI agar dilution; settings: S. aureus CMX 642A, unit assumed
[20] = test system: STREPTOCOCCUS BOVIS A-5169; assay: as above; settings: S. bovis A-5169, unit assumed
[21] = test system: STAPHYLOCOCCUS EPIDERMIDIS 3519; settings: S. epidermidis 3519; BHI agar; unit assumed
[22] = test system: STAPHYLOCOCCUS AUREUS CMX 553; assay: In vitro antibacterial activity, MIC, BHI agar dilution; settings: S. aureus CMX 553, unit assumed
PSEUDOMONAS CEPACIA 296I = assay: as above; settings: P. cepacia 296I, unit assumed
ESCHERICHIA COLI JUHL = settings: E. coli JUHL; BHI agar; unit assumed
[23] = test system: PSEUDOMONAS AERUGINOSA 5007; assay: In vitro antibacterial activity, MIC, BHI agar dilution; settings: P. aeruginosa 5007, unit assumed
H. Influenza Dill AMP R = assay: In vitro antibacterial activity against H. Influenza Dill AMP R, MIC; settings: separate assay, unit assumed
Experimental: Representative compounds of the present invention were assayed in vitro for antibacterial activity as follows: Twelve petri dishes containing successive aqueous dilutions of the test compound mixed with 10 mL of sterilized Brain Heart Infusion (BHI) agar (Difco 0418-01-5) were prepared. Each plate was inoculated with 1:100 (or 1:10 for slow-growing strains, such as Micrococcus and Streptococcus) dilutions of up to 32 different microorganisms, using a Steers replicator block. The inoculated plates were incubated at 35-37° C. for 20 to 24 hours. In addition, a control plate, using BHI agar containing no test compound, was prepared and incubated at the beginning and end of each test.
After incubation, each plate was visually inspected. The minimum inhibitory concentration (MIC) was defmed as the lowest concentration of drug yielding no growth, a slight haze, or sparsely isolated colonies on the inoculum spot as compared to the growth control.
In a separate assay representative compounds of the invention were assayed in vitro for antibacterial activity against the H. Influenza Dill AMP R strain, according to the protocol described above.

SMILES	MIC (ESCHERICHIA COLI KNK 437) [µg/mL]	MIC [1] [µg/mL]	MIC [3] [µg/mL]	MIC [4] [µg/mL]	MIC [5] [µg/mL]	MIC [6] [µg/mL]	MIC [7] [µg/mL]	MIC [8] [µg/mL]	MIC [9] [µg/mL]	MIC [10] [µg/mL]	MIC [11] [µg/mL]	MIC (ESCHERICHIA COLI SS) [µg/mL]	MIC [12] [µg/mL]	MIC [13] [µg/mL]	MIC [14] [µg/mL]	MIC [15] [µg/mL]	MIC (ESCHERICHIA COLI H560) [µg/mL]	MIC [16] [µg/mL]	MIC (EN[…] ATCC 8043) [µg/mL]	MIC (M[…] ATCC 9341) [µg/mL]	other results
CC[C@H]1OC(=O)[C@H](C)C(=O)[C@H](C)[C@@H](O[C@@H]2O[C@H](C)C[C@H](N(C)C)[C@H]2O)[C@](C)(OC)C[C@@H](C)C2=N[C@@H]3CNC[C@@H]3N3C(=O)O[C@@]1(C)[C@H]3[C@H]2C [Example 19]	6.2 (≈ 9.13 µM)	0.05 (≈ 0.0737 µM)	0.39 (≈ 0.574 µM)	12.5 (≈ 18.4 µM)	0.39 (≈ 0.574 µM)	> 100	> 100	12.5 (≈ 18.4 µM)	> 100	50 (≈ 73.7 µM)	3.1 (≈ 4.57 µM)	0.2 (≈ 0.295 µM)	> 100	0.39 (≈ 0.574 µM)	6.2 (≈ 9.13 µM)	> 100	3.1 (≈ 4.57 µM)	> 100	0.05 (≈ 0.0737 µM)	0.1 (≈ 0.147 µM)	MIC [2]: 0.39 µg/mL (≈ 0.574 µM); MIC (M[…] ATCC 4698): 0.2 µg/mL (≈ 0.295 µM); MIC (STR[…] 508): 0.05 µg/mL (≈ 0.0737 µM); MIC [17]: 0.78 µg/mL (≈ 1.15 µM); MIC (ESCHERICHIA COLI DC-2): 6.2 µg/mL (≈ 9.13 µM); MIC (CANDIDA ALBICANS CCH 442): > 100 µg/mL; MIC [18]: > 100 µg/mL; MIC [19]: 0.39 µg/mL (≈ 0.574 µM); MIC [20]: 0.005 µg/mL (≈ 0.00737 µM); MIC [21]: 0.39 µg/mL (≈ 0.574 µM); MIC [22]: 0.39 µg/mL (≈ 0.574 µM); MIC (PSEUDOMONAS CEPACIA 296I): > 100 µg/mL; MIC (ESCHERICHIA COLI JUHL): 12.5 µg/mL (≈ 18.4 µM); MIC [23]: > 100 µg/mL; MIC (H. Influenza Dill AMP R): 16 µg/mL (≈ 23.6 µM)
CC[C@H]1OC(=O)[C@H](C)C(=O)[C@H](C)[C@@H](O[C@@H]2O[C@H](C)C[C@H](N(C)C)[C@H]2O)[C@](C)(OC)C[C@@H](C)C2=NC[C@H](CCCc3ccccc3)N3C(=O)O[C@@]1(C)[C@H]3[C@H]2C [Example 40]	> 100	0.02 (≈ 0.0265 µM)	0.78 (≈ 1.03 µM)	> 100	0.78 (≈ 1.03 µM)	> 100	> 100	> 100	> 100	> 100	0.39 (≈ 0.516 µM)	0.78 (≈ 1.03 µM)	100 (≈ 132 µM)	0.78 (≈ 1.03 µM)	50 (≈ 66.1 µM)	> 100	25 (≈ 33.1 µM)	> 100	0.05 (≈ 0.0661 µM)	0.05 (≈ 0.0661 µM)	MIC [2]: 0.78 µg/mL (≈ 1.03 µM); MIC (M[…] ATCC 4698): 0.39 µg/mL (≈ 0.516 µM); MIC (STR[…] 508): 0.05 µg/mL (≈ 0.0661 µM); MIC [17]: 0.2 µg/mL (≈ 0.265 µM); MIC (ESCHERICHIA COLI DC-2): 100 µg/mL (≈ 132 µM); MIC (CANDIDA ALBICANS CCH 442): > 100 µg/mL; MIC [18]: > 100 µg/mL; MIC [19]: 0.78 µg/mL (≈ 1.03 µM); MIC [20]: 0.02 µg/mL (≈ 0.0265 µM); MIC [21]: 0.39 µg/mL (≈ 0.516 µM); MIC [22]: 0.78 µg/mL (≈ 1.03 µM); MIC (PSEUDOMONAS CEPACIA 296I): > 100 µg/mL; MIC (ESCHERICHIA COLI JUHL): > 100 µg/mL; MIC [23]: > 100 µg/mL; MIC (H. Influenza Dill AMP R): 4 µg/mL (≈ 5.29 µM)
CC[C@H]1OC(=O)[C@H](C)C(=O)[C@H](C)[C@@H](O[C@@H]2O[C@H](C)C[C@H](N(C)C)[C@H]2O)[C@](C)(OC)C[C@@H](C)C2=N[C@H](COCc3cc(C)c4ccccc4n3)CN3C(=O)O[C@@]1(C)[C@H]3[C@H]2C [Example 83]	> 100	0.01 (≈ 0.0122 µM)	6.2 (≈ 7.53 µM)	> 100	0.2 (≈ 0.243 µM)	> 100	> 100	> 100	> 100	> 100	0.39 (≈ 0.474 µM)	1.56 (≈ 1.9 µM)	100 (≈ 122 µM)	0.2 (≈ 0.243 µM)	100 (≈ 122 µM)	> 100	> 100	> 100	0.05 (≈ 0.0608 µM)	0.05 (≈ 0.0608 µM)	MIC [2]: 0.2 µg/mL (≈ 0.243 µM); MIC (M[…] ATCC 4698): 0.39 µg/mL (≈ 0.474 µM); MIC (STR[…] 508): 0.01 µg/mL (≈ 0.0122 µM); MIC [17]: 0.39 µg/mL (≈ 0.474 µM); MIC (ESCHERICHIA COLI DC-2): > 100 µg/mL; MIC (CANDIDA ALBICANS CCH 442): > 100 µg/mL; MIC [18]: > 100 µg/mL; MIC [19]: 0.2 µg/mL (≈ 0.243 µM); MIC [20]: 0.02 µg/mL (≈ 0.0243 µM); MIC [21]: 0.39 µg/mL (≈ 0.474 µM); MIC [22]: 0.2 µg/mL (≈ 0.243 µM); MIC (PSEUDOMONAS CEPACIA 296I): 50 µg/mL (≈ 60.8 µM); MIC (ESCHERICHIA COLI JUHL): > 100 µg/mL; MIC [23]: > 100 µg/mL; MIC (H. Influenza Dill AMP R): 16 µg/mL (≈ 19.4 µM)
CC[C@H]1OC(=O)[C@H](C)C(=O)[C@H](C)[C@@H](O[C@@H]2O[C@H](C)C[C@H](N(C)C)[C@H]2O)[C@](C)(OC)C[C@@H](C)C2=NC3CN(C(C)=O)CC3N3C(=O)O[C@@]1(C)[C@H]3[C@H]2C (stereo partly drawn) [Example 125]	> 100	0.1 (≈ 0.139 µM)	6.2 (≈ 8.6 µM)	> 100	6.2 (≈ 8.6 µM)	> 100	> 100	> 100	> 100	> 100	50 (≈ 69.4 µM)	0.78 (≈ 1.08 µM)	> 100	6.2 (≈ 8.6 µM)	100 (≈ 139 µM)	> 100	> 100	> 100	1.56 (≈ 2.16 µM)	0.78 (≈ 1.08 µM)	MIC (M[…] ATCC 4698): 6.2 µg/mL (≈ 8.6 µM); MIC (STR[…] 508): 0.39 µg/mL (≈ 0.541 µM); MIC (ESCHERICHIA COLI DC-2): > 100 µg/mL; MIC (CANDIDA ALBICANS CCH 442): > 100 µg/mL; MIC [18]: > 100 µg/mL; MIC [19]: 12.5 µg/mL (≈ 17.3 µM); MIC [20]: 0.2 µg/mL (≈ 0.277 µM); MIC [21]: 6.2 µg/mL (≈ 8.6 µM); MIC [22]: 6.2 µg/mL (≈ 8.6 µM); MIC (PSEUDOMONAS CEPACIA 296I): > 100 µg/mL; MIC (ESCHERICHIA COLI JUHL): > 100 µg/mL; MIC [23]: > 100 µg/mL; MIC (H. Influenza Dill AMP R): 128 µg/mL (≈ 178 µM)
